What is called Kd is the concentration at which binding is half-saturated. A lower Kd goes with higher affinity.

MIC and Kd data for 20 compounds are collected here from paper PMC9863409, “Combining the In Silico and In Vitro Assays to Identify Strobilanthes cusia Kuntze Bioactives against Penicillin-Resistant Streptococcus pneumoniae” (Pharmaceuticals, 2023).

Values after ≈ are worked out from the molar mass of the structure shown.

StrH (exo-beta-D-N-acetylglucosaminidase), sequence (P49610 626-1064): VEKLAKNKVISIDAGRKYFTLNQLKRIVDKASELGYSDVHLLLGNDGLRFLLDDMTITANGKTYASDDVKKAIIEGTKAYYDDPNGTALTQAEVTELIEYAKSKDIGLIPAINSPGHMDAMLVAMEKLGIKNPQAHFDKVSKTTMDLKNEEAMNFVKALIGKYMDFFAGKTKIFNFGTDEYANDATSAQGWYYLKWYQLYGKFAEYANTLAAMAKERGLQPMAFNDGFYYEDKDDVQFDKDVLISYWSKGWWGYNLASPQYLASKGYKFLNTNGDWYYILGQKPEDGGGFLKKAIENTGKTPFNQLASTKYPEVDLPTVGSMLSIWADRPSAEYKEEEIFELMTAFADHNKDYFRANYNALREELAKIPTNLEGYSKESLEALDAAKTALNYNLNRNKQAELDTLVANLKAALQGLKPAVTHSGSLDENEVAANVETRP

The first test relates to T1, Streptococcus pneumoniae PRSP F3983.
T1 construct: F3983 (penicillin-resistant)
Briefly: microbe, parasite or virus in culture. Further details: MIC test of isolated compounds on penicillin-resistant Streptococcus pneumoniae F3983. The text has this: 2.4.2. MIC Tests for the Isolated 23 Chemical Compounds on the PRSP F3983 The following supporting information can be downloaded at: https://www.mdpi.com/article/10.3390/ph16010105/s1; Table S1: Proteome_data sheet; Table S2: UPLC-UV-ESI-Q-TOF/MS analysis of S. cusia leaves; Table S3: NMR of 23 isolated compounds and their MICs against PRSP [69, 70, 71, 72, 73, 74, 75, 76, 77, 78, 79, 80, 81, 82, 83, 84, 85, 86, 87, 88, 89, 90, 91]; Table S4: Reverse-docking_active-pockets; Table S5: Reverse-docking_results_Tryptanthrin; Table S6: LMW-Kinetics-affinity_Tryptanthrin; Table S7: Primers and sequences of bgaA, StrH, SP_2141 and SP_2146 of F3983; Table S8: A scheme of Preparation of Isolated Compounds from S. cusia leaves
Compound `CC(=O)C=CC1=C(C)CC(O)CC1(C)C` (single isomer, unassigned; (-)) [compound 9, (-)-3-hydroxy-β-ionone] yielded an MIC above 800 µg/mL.

For the compound `CC(=O)/C=C/[C@H]1C(C)=C[C@H](O)CC1(C)C` [compound 3, (3R,6R,7E)-3-hydroxy-4,7-megastigmadien-9-one], the MIC stood at 400 µg/mL (≈ 1920 µM).

Take `O=C1Cc2ccccc2N1` [compound 4, 1,3-dihydro-2H-indol-2-one]: the MIC amounted to 400 µg/mL (≈ 3000 µM).

In turn, `O=C(O)c1ccc(C(=O)O)[nH]1` [compound 5, 1H-pyrrole-2,5-diacarboxylic acid] gave an MIC of 200 µg/mL (≈ 1290 µM).

Consider `CCCCC(CC)COC(=O)c1ccccc1C(=O)OCC(CC)CCCC` (stereo not shown) [compound 6, bis(2-ethylhexyl) benzene-1,2-dicarboxylate], for which the MIC is above 800 µg/mL.

For the compound `CC(C)COC(=O)c1ccccc1C(=O)OCC(C)C` [compound 7, phthalic acid isodibutyl ester], the MIC is above 800 µg/mL.

For the compound `COC(=O)c1ccccc1NC(=O)c1c[nH]c2ccccc12` [compound 8, cephalandole B], the MIC is above 800 µg/mL.

In the case of `COc1cc(C(=O)O)ccc1O` [compound 10, 4-hydroxy-5-methoxy-benzoic acid], the MIC was above 800 µg/mL.

In turn, `CC(=O)C=CC12OC1(C)CC(O)CC2(C)C` (stereo not drawn) [compound 11, 3β-hydroxy-5α,6α-epoxy-7-megastigmen-9-one] had an MIC of 400 µg/mL (≈ 1780 µM).

On to `CC1(C)C[C@H](O)C[C@@]2(C)OC(=O)C=C12` [compound 12, Calendin], for which the MIC is above 800 µg/mL.

With `O=c1c2ccccc2ncn1-c1ccccc1O` [compound 13, 3-(2'-hydroxyphenyl)-4(3H)-quinazolinone], the MIC was determined as 400 µg/mL (≈ 1680 µM).

`O=Cc1c[nH]c2ccccc12` [compound 14, 1H-indole-3-carboxadehyde] registered an MIC above 800 µg/mL.

`COc1c(O)cc2oc(-c3ccc(O)cc3)cc(=O)c2c1O` [compound 15, hispidulin] showed an MIC of 200 µg/mL (≈ 666 µM).

Compound `O=C1Nc2ccccc2OC1O` (stereo not shown) [compound 16, 2-hydroxy-(2H)-1,4-benzoxazin-3(4H)-one] showed an MIC above 800 µg/mL.

`CC(O)C(=O)Nc1ccccc1O` (stereo not shown) [compound 17, 2-hydroxy-N-(2-hydroxyphenyl)propionamide]: the MIC was above 800 µg/mL.

The compound `CC(=O)c1ccc(O)cc1` [compound 19, p-hydroxyacetophenone] displayed an MIC of 200 µg/mL (≈ 1470 µM).

Take `O=c1c2ccccc2nc2n1CCC2` [compound 20, deoxyvasicinone]: the MIC was above 800 µg/mL.

`NC(=O)c1cccnc1` [compound 21, Nicotinamide] returned an MIC above 800 µg/mL.

`CCCCCCCC/C=C\CCCCCCCC(N)=O` [compound 23, 9(Z)-octadece-nameid] came in with an MIC above 800 µg/mL.

For another test, the target named is T2, SP_2146 (alpha-fucosidase) (Streptococcus pneumoniae, UniProt A0A0H2US78).
T2 construct: recombinant from PRSP F3983 genomic DNA, pET-28a (+) with N-terminal 6 × His tag
T2 sequence (A0A0H2US78 entry or part of it): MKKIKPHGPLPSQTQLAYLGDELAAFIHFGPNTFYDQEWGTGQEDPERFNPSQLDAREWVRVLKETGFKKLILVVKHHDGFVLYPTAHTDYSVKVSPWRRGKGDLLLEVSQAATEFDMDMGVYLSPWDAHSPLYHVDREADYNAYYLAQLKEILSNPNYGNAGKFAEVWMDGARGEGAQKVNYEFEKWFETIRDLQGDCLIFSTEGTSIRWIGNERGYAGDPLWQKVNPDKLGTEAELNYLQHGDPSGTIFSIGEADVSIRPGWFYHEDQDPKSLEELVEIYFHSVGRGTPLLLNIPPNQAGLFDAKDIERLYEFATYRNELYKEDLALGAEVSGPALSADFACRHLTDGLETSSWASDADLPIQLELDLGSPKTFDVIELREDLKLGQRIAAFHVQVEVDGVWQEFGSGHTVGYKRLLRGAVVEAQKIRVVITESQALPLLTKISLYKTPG
As to the kind of experiment: SPR (Biacore 8K, CM5 chip, immobilized protein, steady-state affinity). It counts as binding. A general note: Surface plasmon resonance follows binding to a sensor surface in real time, without labels.
Compound `O=C1c2ccccc2-n2c1nc1ccccc1c2=O` [Tryptanthrin, Indolo(2,1-b)quinazoline-6,12-dione] showed a Kd of 8.82 µM.

The next test has as its target StrH (exo-beta-D-N-acetylglucosaminidase) (Streptococcus pneumoniae, UniProt P49610). The description is as above. It counts as binding.
Compound `O=C1c2ccccc2-n2c1nc1ccccc1c2=O` [Tryptanthrin, Indolo(2,1-b)quinazoline-6,12-dione] came in with a Kd of 7.16 µM.

A further test deals with T3, SP_2141 (beta-Hexosaminidase) (Streptococcus pneumoniae, UniProt A0A0H2US73).
T3 construct: recombinant from PRSP F3983 genomic DNA, pET-28a (+) with N-terminal 6 × His tag
T3 sequence (A0A0H2US73 entry or part of it): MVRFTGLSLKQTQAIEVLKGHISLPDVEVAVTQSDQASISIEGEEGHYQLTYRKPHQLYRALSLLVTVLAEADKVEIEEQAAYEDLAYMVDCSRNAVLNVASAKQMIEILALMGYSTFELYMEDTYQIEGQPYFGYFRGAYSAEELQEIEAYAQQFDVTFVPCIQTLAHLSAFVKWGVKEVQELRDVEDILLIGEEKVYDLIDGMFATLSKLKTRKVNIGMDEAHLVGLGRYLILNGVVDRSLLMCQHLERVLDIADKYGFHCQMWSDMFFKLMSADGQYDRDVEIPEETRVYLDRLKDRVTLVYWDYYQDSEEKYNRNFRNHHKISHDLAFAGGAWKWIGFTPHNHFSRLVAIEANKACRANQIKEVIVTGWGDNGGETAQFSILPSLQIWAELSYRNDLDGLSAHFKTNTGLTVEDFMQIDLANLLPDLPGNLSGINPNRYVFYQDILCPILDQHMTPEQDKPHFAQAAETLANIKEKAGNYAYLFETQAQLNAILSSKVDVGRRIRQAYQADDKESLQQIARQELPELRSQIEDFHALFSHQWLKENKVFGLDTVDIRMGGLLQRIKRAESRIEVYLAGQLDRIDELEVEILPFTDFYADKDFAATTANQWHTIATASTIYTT
The test is described as above. It counts as binding.
Compound `O=C1c2ccccc2-n2c1nc1ccccc1c2=O` [Tryptanthrin, Indolo(2,1-b)quinazoline-6,12-dione] yielded a dissociation constant Kd of 6.43 µM.
